Laboratory results as given in patent US20200385371A1 (Propellon Therapeutics Inc., priority 2017, published 2020).
Where two headings read alike, the source gives them in different places.

What was measured:
[1] = biological target: T1, WDR5 (Homo sapiens, UniProt P61964); assay: Fluorescence Polarization (FP) binding assay
Method: H3 (1-15) ([…]), and 9-Ala-FAM ((Ac)-[…]-(Ahx-Ahx)-K(5,6-FAM)) (where Ahx represents 6 amino hexanoic acid linkers) peptides for WDR5 were synthesized, N-terminal-labeled with isothiocyanate-fluorescein, and purified by Tufts University Core Services (Boston, Mass.). Compound binding assays were performed at a constant labeled peptide concentration of 30 or 20 nM for H3 (1-15) and 9-Ala-FAM respectively. WDR5 concentrations of 0.3 μM for H3 (1-15) and 0.05 μM for 9-Ala-FAM were used. For both the H3 (1-15) and 9-Ala-FAM peptides, 80 mM sodium phosphate buffer (pH 6.5), 20 mM KCl, and 0.008% Triton X-100 was used. For the H3 (1-15) peptide, FP assays were measured in 10 μl aliquots in 384-well Axygen plates using a Synergy 4 microplate reader (BioTek) with an excitation wavelength of 485 nm and emission wavelength of 528 nm. For the 9-Ala-FAM peptide, FP assays were measured in 125 μl aliquots in 96 well Microfluor plates using a ViewLux instrument (Perkin Elmer) with an excitation wavelength of 480 nm and emission wavelength of 540 nm. To determine Kdsp values, the data were fit to a hyperbolic function using Sigma Plot software (Systat Software). The Kdisp values represent the average of quadruplicate measurements.

[2] = tested on: MV4-11 cells; assay: Cell proliferation assay (ATPlite); assay type: cell-based; conditions: Homo sapiens; for EC50: 120 h, MV4-11 cells, five days, read-out: GI MV411 EC50; for IC50: MV4-11, Table 2
Method: MV4-11 cells were seeded into a 96-well plate at 1,000 cells/well in 150 μl medium (Alpha-MEM containing 10% FBS, 100 μg/ml Normocin, and 50 μg/ml Gentamycin, Invitrogen). A HP D300 digital dispenser was used to dose cells with DMSO or test compounds across a 10-point range of concentrations (high dose of 10 μM), and cultures were grown in a humidified 5% CO2 incubator at 37° C. After five days, plates were removed from incubator and equilibrated to room temperature. An equal volume of ATPlite assay reagent was added to each well, and samples were processed according to manufacturer's instructions (Perkin Elmer). Luminescent signal was measured using an Envision plate reader equipped with a US-Luminescence detector.

[3] = biological target: T1, WDR5; assay: Surface Plasmon Resonance (SPR) assay; assay type: binding; set-up: Full length WDR5 with an N-terminal His tag and C-terminal AviTag; His tag (N); made in house; host or cells: E. coli
Method: Exemplary compounds of the application were dissolved in 100% DMSO at 10 mM, assayed fresh, and then stored at −20° C. for repeat studies and other experiments. Full length WDR5 with an N-terminal His tag and C-terminal AviTag (Avidity Inc.) was expressed in E. coli with coexpression of BirA to biotin label the protein in vivo. Purification was via Ni-NTA.
SPR studies were performed using a Biacore™ T200 instrument (GE Health Sciences Inc.). Biotinylated WDR5 protein (approximately 3000RU) was stably captured to streptavidin coupled SA chips according to the manufacture's protocol (GE Health Sciences Inc.). The running buffer used was HBS-EP (20 mM Hepes pH 7.4, 150 mM NaCl, 3 mM EDTA, 0.05% P-20) plus 5% DMSO with a flow rate of 40 μl/min. For SPR analysis, 5 different concentrations of each exemplary compound of the application were sprayed into 96 or 384 well plates using an HP D300 digital dispenser. The concentration ranged from about 195 nM to about 12 nM in a two-fold series. […] Curve fitting and KD calculations were performed with the Biacore T200 Evalutation software (GE Health Sciences Inc).

SMILES | IC50 [1] | EC50 [2] | Kd ([3]; read-out: SPR Kd) | IC50 [2] | Kd ([3]; Table 2, effect of difluoro substitution, read-out: KD (SPR))
C[C@@H]1CN(c2cc(F)c(-c3cnc(N4CCOCC4)nc3)c(F)c2NC(=O)c2c[nH]c(=O)cc2C(F)(F)F)C[C@H](C)N1C [Example 2, N-(2,4-difluoro-3-(2-morpholinopyrimidin-5-yl)-6-((3S,5R)-3,4,5-trimethylpiperazin-1-yl)phenyl)-6-oxo-4-(trifluoromethyl)-1,6-dihydropyridine-3-carboxamide] | 16.3 nM | 30.1 nM | 3.68 nM | – | –
C[C@@H]1CN(c2ncc(-c3c(F)cc(N4C[C@@H](C)N(C)[C@@H](C)C4)c(NC(=O)c4c[nH]c(=O)cc4C(F)(F)F)c3F)cn2)C[C@H](C)O1 [Example 8, N-(3-(2-((2S,6R)-2,6-dimethylmorpholino)pyrimidin-5-yl)-2,4-difluoro-6-((3S,5R)-3,4,5-trimethylpiperazin-1-yl)phenyl)-6-oxo-4-(trifluoromethyl)-1,6-dihydropyridine-3-carboxamide] | 21.3 nM | 31 nM | 0.82 nM | – | –
C[C@@H]1CN(c2cc(F)c(-c3ccc(N4CCOCC4)c(F)c3)c(F)c2NC(=O)c2c[nH]c(=O)cc2C(F)(F)F)C[C@H](C)N1C [Example 9, 6-Oxo-N-(2,3′,6-trifluoro-4′-morpholino-4-((3S,5R)-3,4,5-trimethylpiperazin-1-yl)-[1,1′-biphenyl]-3-yl)-4-(trifluoromethyl)-1,6-dihydropyridine-3-carboxamide] | 15.3 nM | 123 nM | 1.33 nM | – | –
C[C@@H]1CN(c2cc(F)c(-c3cnc(N4CCOCC4)nc3)c(F)c2NC(=O)c2ccc(F)cc2C(F)(F)F)C[C@H](C)N1C [Example 10, N-(2,4-difluoro-3-(2-morpholinopyrimidin-5-yl)-6-((3S,5R)-3,4,5-trimethylpiperazin-1-yl)phenyl)-4-fluoro-2-(trifluoromethyl)benzamideformic acid] | 10 nM | 59.2 nM | 0.33 nM | – | –
CC(C)OC(=O)N1CCC=C(c2c(F)cc(N3C[C@@H](C)N(C)[C@@H](C)C3)c(NC(=O)c3c[nH]c(=O)cc3C(F)(F)F)c2F)C1 [Example 13, Isopropyl 5-(2,6-difluoro-3-(6-oxo-4-(trifluoromethyl)-1,6-dihydropyridine-3-carboxamido)-4-((3S,5R)-3,4,5-trimethylpiperazin-1-yl)phenyl)-3,6-dihydropyridine-1(2H)-carboxylate] | 14.4 nM | 173 nM | 1.91 nM | – | –
C[C@@H]1CN(c2cc(F)c(C3=CCCN(C(=O)OC4CC(F)(F)C4)C3)c(F)c2NC(=O)c2c[nH]c(=O)cc2C(F)(F)F)C[C@H](C)N1C [Example 20, 3,3-Difluorocyclobutyl 5-(2,6-difluoro-3-(6-oxo-4-(trifluoromethyl)-1,6-dihydropyridine-3-carboxamido)-4-((3S,5R)-3,4,5-trimethylpiperazin-1-yl)phenyl)-3,6-dihydropyridine-1(2H)-carboxylate] | 14.1 nM | 153 nM | 2.06 nM | – | –
CNC(=O)c1ccc(-c2c(F)cc(N3C[C@@H](C)N(C)[C@@H](C)C3)c(NC(=O)c3c[nH]c(=O)cc3C(F)(F)F)c2F)cc1F [Example 24, 6-Oxo-N-(2,3′,6-trifluoro-4′-(methylcarbamoyl)-4-((3S,5R)-3,4,5-trimethylpiperazin-1-yl)-[1,1′-biphenyl]-3-yl)-4-(trifluoromethyl)-1,6-dihydropyridine-3-carboxamide] | 24.9 nM | 101 nM | 3 nM | – | –
C[C@@H]1CN(c2cc(F)c(-c3ccc(C(N)=O)c(F)c3)c(F)c2NC(=O)c2c[nH]c(=O)cc2C(F)(F)F)C[C@H](C)N1C [Example 25, N-(4′-carbamoyl-2,3′,6-trifluoro-4-((3S,5R)-3,4,5-trimethylpiperazin-1-yl)-[1,1′-biphenyl]-3-yl)-6-oxo-4-(trifluoromethyl)-1,6-dihydropyridine-3-carboxamide] | 19.5 nM | 148 nM | 2.05 nM | – | –
C[C@@H]1CN(c2cc(F)c(-c3ccc(C(N)=O)c(F)c3F)c(F)c2NC(=O)c2c[nH]c(=O)cc2C(F)(F)F)C[C@H](C)N1C [Example 26, N-(4′-carbamoyl-2,2′,3′,6-tetrafluoro-4-((3S,5R)-3,4,5-trimethylpiperazin-1-yl)-[1,1′-biphenyl]-3-yl)-6-oxo-4-(trifluoromethyl)-1,6-dihydropyridine-3-carboxamide] | 22.2 nM | 316 nM | 4.49 nM | – | –
C[C@@H]1CN(c2cc(F)c(-c3ccc(C(=O)NC(C)(C)CC(C)(C)C)c(F)c3F)c(F)c2NC(=O)c2c[nH]c(=O)cc2C(F)(F)F)C[C@H](C)N1C [Example 27, 6-Oxo-N-(2,2′,3′,6-tetrafluoro-4′-((2,4,4-trimethylpentan-2-yl)carbamoyl)-4-((3S,5R)-3,4,5-trimethylpiperazin-1-yl)-[,1′-biphenyl]-3-yl)-4-(trifluoromethyl)-1,6-dihydropyridine-3-carboxamide] | 34.8 nM | 221 nM | 1.13 nM | – | –
C[C@@H]1CN(c2cc(F)c(-c3ccc(F)c(C(N)=O)c3)c(F)c2NC(=O)c2c[nH]c(=O)cc2C(F)(F)F)C[C@H](C)N1C [Example 28, N-(3′-carbamoyl-2,4′,6-trifluoro-4-((3S,5R)-3,4,5-trimethylpiperazin-1-yl)-[1,1′-biphenyl]-3-yl)-6-oxo-4-(trifluoromethyl)-1,6-dihydropyridine-3-carboxamide] | 36.2 nM | 2870 nM | 5.01 nM | – | –
CNC(=O)c1cc(-c2c(F)cc(N3C[C@@H](C)N(C)[C@@H](C)C3)c(NC(=O)c3c[nH]c(=O)cc3C(F)(F)F)c2F)ccc1F [Example 29, 6-Oxo-N-(2,4′,6-trifluoro-3′-(methylcarbamoyl)-4-((3S,5R)-3,4,5-trimethylpiperazin-1-yl)-[1,1′-biphenyl]-3-yl)-4-(trifluoromethyl)-1,6-dihydropyridine-3-carboxamide] | 22.4 nM | 1110 nM | 3.9 nM | – | –
C[C@@H]1CN(c2cc(F)c(-c3cc(C(N)=O)c(F)cc3F)c(F)c2NC(=O)c2c[nH]c(=O)cc2C(F)(F)F)C[C@H](C)N1C [Example 30, N-(5′-carbamoyl-2,2′,4′,6-tetrafluoro-4-((3S,5R)-3,4,5-trimethylpiperazin-1-yl)-[1,1′-biphenyl]-3-yl)-6-oxo-4-(trifluoromethyl)-1,6-dihydropyridine-3-carboxamide] | 85.9 nM | 18500 nM | 23.6 nM | – | –
C[C@@H]1CN(c2cc(F)c(-c3cnc(N4CCOCC4)nc3)c(F)c2NC(=O)c2ccc(F)cc2C(F)F)C[C@H](C)N1C [Example 31, N-(2,4-difluoro-3-(2-morpholinopyrimidin-5-yl)-6-((3S,5R)-3,4,5-trimethylpiperazin-1-yl)phenyl)-2-(difluoromethyl)-4-fluorobenzamideformic Acid] | 19.6 nM | 96.6 nM | 1.04 nM | – | –
C[C@@H]1CN(c2nccc(-c3c(F)cc(N4CCN(C)[C@@H](C)C4)c(NC(=O)c4ccc(F)cc4C(F)F)c3F)n2)C[C@H](C)O1 [Example 32, 2-(Difluoromethyl)-N-(3-(2-((2S,6R)-2,6-dimethylmorpholino)pyrimidin-4-yl)-6-((S)-3,4-dimethylpiperazin-1-yl)-2,4-difluorophenyl)-4-fluorobenzamide Formic Acid] | 33 nM | 286 nM | 5.07 nM | – | –
C[C@@H]1CN(c2cc(F)c(-c3cnc(N4CCOCC4)nc3)cc2NC(=O)c2c[nH]c(=O)cc2C(F)(F)F)C[C@H](C)N1C [reference compound] | – | – | – | 25 nM | –
C[C@@H]1CN(c2c(F)cc(-c3cnc(N4CCOCC4)nc3)cc2NC(=O)c2c[nH]c(=O)cc2C(F)(F)F)C[C@H](C)N1C [reference compound] | – | – | – | 3540 nM | 77 nM
